Measurements: patent US20250129430A1, “HIGH ATP-AFFINITY PROTEIN AS THERAPEUTIC TARGET FOR INTRACTABLE CANCER MOLECULAR SUBTYPES AND INHIBITOR THEREOF” (VeraVerse Co., Ltd., priority 2021, published 2025)

Key:
Assay in all cases: Cell viability drug screen, 12-point dose-response AUC
Assay type in all cases: cell-based, human
AGS = conditions: 72 hours; for Average Area Under the Viability Curve (AUC), AUC norm value: AGS cells (non-SEM subtype)
Summary of the method: (§1)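 Luminescent viability readings, taken 15 min after reagent addition at room temperature, were normalized to the 0.5% DMSO control to build 12-point dose-response curves. Trapezoidal integration gave the AUC. Cells had been plated at 5×10^3 per well and then exposed to half-log dilutions for 72 h.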

Hs746T = conditions: 72 hours; for Average Area Under the Viability Curve (AUC), AUC norm value: Hs746T cells (SEM subtype)
Summary of the method: (§2)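 Each cell line receives a twelve-point half-log titration of drug beginning 24 h after plating 5×10^3 cells per well. Following 72 h culture at 37 °C, luminescent signal is recorded and expressed versus vehicle. AUC is derived by the trapezoidal method.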

KATO3 = KATO3 cells, 72 hours
Summary of the method: as §2

MKN1 = MKN1 cells, 72 hours
Summary of the method: as §2

MKN28 = MKN28 cells, 72 hours
Summary of the method: as §2

MKN45 = conditions: 72 hours; for Average Area Under the Viability Curve (AUC), AUC norm value: MKN45 cells (non-SEM subtype)
Summary of the method: as §1

MKN74 = MKN74 cells, 72 hours
Summary of the method: as §1

NCC19 = NCC19 cells, 72 hours
Summary of the method: as §2

NCC20 = NCC20 cells, 72 hours
Summary of the method: as §2

NCC24 = NCC24 cells, 72 hours
Summary of the method: as §2

NCC59 = NCC59 cells, 72 hours
Summary of the method: as §2

NCI_N87 = NCI_N87 cells, 72 hours
Summary of the method: as §2

OCUM1 = OCUM1 cells, 72 hours
Summary of the method: as §2

SK4 = conditions: 72 hours; for Average Area Under the Viability Curve (AUC), AUC norm value: SK4 cells (SEM subtype)
Summary of the method: as §2

SNU16 = SNU16 cells, 72 hours
Summary of the method: as §2

SNU1750 = conditions: 72 hours; for Average Area Under the Viability Curve (AUC), AUC norm value: SNU1750 cells (SEM subtype)
Summary of the method: as §2

SNU1967 = SNU1967 cells, 72 hours
Summary of the method: as §2

SNU1 = SNU1 cells, 72 hours
Summary of the method: as §2

SNU216 = conditions: 72 hours; for Average Area Under the Viability Curve (AUC), AUC norm value: SNU216 cells (non-SEM subtype)
Summary of the method: as §1

SNU484 = conditions: 72 hours; for Average Area Under the Viability Curve (AUC), AUC norm value: SNU484 cells (SEM subtype)
Summary of the method: as §2

SNU601 = SNU601 cells, 72 hours
Summary of the method: as §2

SNU620 = SNU620 cells, 72 hours
Summary of the method: as §2

SNU638 = SNU638 cells, 72 hours
Summary of the method: as §2

SNU668 = conditions: 72 hours; for Average Area Under the Viability Curve (AUC), AUC norm value: SNU668 cells (SEM subtype)
Summary of the method: as §2

SNU719 = SNU719 cells, 72 hours
Summary of the method: as §1

YCC11 = conditions: 72 hours; for Average Area Under the Viability Curve (AUC), AUC norm value: YCC11 cells (SEM subtype)
Summary of the method: as §2

YCC2 = YCC2 cells, 72 hours
Summary of the method: as §2

YCC3 = YCC3 cells, 72 hours
Summary of the method: as §2

FU97 = test system: FU97; design: Average Area Under the Viability Curve (AUC), AUC norm value: scale not given here; conditions: FU97 cells, 72 hours
Summary of the method: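 Trapezoidal AUC of a 12-point, DMSO-normalized dose-response curve. Luminescent viability was measured after 72 h of exposure at 37° C to half-log serial dilutions (0.5% DMSO control), dosed 24 h after plating FU97 cells at 5×10^3 per well.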

Q: With C#Cc1cccc(Nc2ncnc3cc(OC)c(OCCCCCCC(=O)NO)cc23)c1 [CUDC-101] as the molecule, how does the “area under the viability curve (AUC), normalized” value (“area … normalized” for short) (AGS; AGS cells, 12-point dose-response) read?
A: Its value is −0.9569.

Q: And the “area … normalized” value (Hs746T; Hs746T cells, 12-point dose-response)?
A: The value was 0.4609.

Q: And the “area … normalized” value (KATO3; 12-point dose-response)?
A: The value was 0.683.

Q: What about the “area … normalized” value (MKN1; 12-point dose-response) of the same molecule?
A: Its value is 0.6267.

Q: And the “area … normalized” value (MKN28; 12-point dose-response)?
A: The value was −0.7663.

Q: What about the “area … normalized” value (MKN45; MKN45 cells, 12-point dose-response) of the same molecule?
A: Its value is 1.5.

Q: And the “area … normalized” value (MKN74; 12-point dose-response)?
A: Its value is −0.5407.

Q: What about the “area … normalized” value (NCC19; 12-point dose-response) of the same molecule?
A: Its value is 1.187.

Q: What about the “area … normalized” value (NCC20; 12-point dose-response) of the same molecule?
A: The value was −0.7885.

Q: And the “area … normalized” value (NCC24; 12-point dose-response)?
A: Its value is 0.1814.

Q: And the “area … normalized” value (NCC59; 12-point dose-response)?
A: The value was 1.8155.

Q: What about the “area … normalized” value (NCI_N87; 12-point dose-response) of the same molecule?
A: The value was −0.4217.

Q: What about the “area … normalized” value (OCUM1; 12-point dose-response) of the same molecule?
A: Its value is 0.3332.

Q: What about the “area … normalized” value (SK4; SK4 cells, 12-point dose-response) of the same molecule?
A: Its value is −0.04342.

Q: And the “area … normalized” value (SNU16; 12-point dose-response)?
A: Its value is 0.427.

Q: And the “area … normalized” value (SNU1750; SNU1750 cells, 12-point dose-response)?
A: The value was −1.203.

Q: And the “area … normalized” value (SNU1967; 12-point dose-response)?
A: The value was −0.301.

Q: And the “area … normalized” value (SNU1; 12-point dose-response)?
A: Its value is 0.

Q: And the “area … normalized” value (SNU216; SNU216 cells, 12-point dose-response)?
A: Its value is −0.5746.

Q: What about the “area … normalized” value (SNU484; SNU484 cells, 12-point dose-response) of the same molecule?
A: Its value is 0.5831.

Q: What about the “area … normalized” value (SNU601; 12-point dose-response) of the same molecule?
A: Its value is −0.1084.

Q: What about the “area … normalized” value (SNU620; 12-point dose-response) of the same molecule?
A: Its value is −0.4289.

Q: What about the “area … normalized” value (SNU638; 12-point dose-response) of the same molecule?
A: The value was −0.8807.

Q: And the “area … normalized” value (SNU668; SNU668 cells, 12-point dose-response)?
A: The value was 0.9508.

Q: What about the “area … normalized” value (SNU719; 12-point dose-response) of the same molecule?
A: The value was 0.9348.

Q: And the “area … normalized” value (YCC11; YCC11 cells, 12-point dose-response)?
A: The value was 0.3451.

Q: What about the “area … normalized” value (YCC2; 12-point dose-response) of the same molecule?
A: Its value is −0.1991.

Q: What about the “area … normalized” value (YCC3; 12-point dose-response) of the same molecule?
A: The value was 0.7562.

Q: What about the “area … normalized” value (FU97; 12-point dose-response) of the same molecule?
A: Its value is −0.4688.

Q: What does the source list for CO[C@H]1C(=O)[C@]2(C)[C@@H](OC)C[C@H]3OC[C@@]3(OC(C)=O)[C@H]2[C@H](OC(=O)c2ccccc2)[C@]2(O)C[C@H](OC(=O)[C@H](O)[C@@H](NC(=O)OC(C)(C)C)c3ccccc3)C(C)=C1C2(C)C [Cabazitaxel (Jevtana), Cabazitaxel]?
A: Average Area Under the Viability Curve (AUC), AUC norm value (AGS): −2.201; Average Area Under the Viability Curve (AUC), AUC norm value (Hs746T): 1.085; Average Area Under the Viability Curve (AUC), AUC norm value (KATO3): 4.95; Average Area Under the Viability Curve (AUC), AUC norm value (MKN1): −1.266; Average Area Under the Viability Curve (AUC), AUC norm value (MKN28): −2.213; Average Area Under the Viability Curve (AUC), AUC norm value (MKN45): 2.138; Average Area Under the Viability Curve (AUC), AUC norm value (MKN74): 0.4319; Average Area Under the Viability Curve (AUC), AUC norm value (NCC19): 0; Average Area Under the Viability Curve (AUC), AUC norm value (NCC20): −0.8551; Average Area Under the Viability Curve (AUC), AUC norm value (NCC24): −1.077; Average Area Under the Viability Curve (AUC), AUC norm value (NCC59): 3.939; Average Area Under the Viability Curve (AUC), AUC norm value (NCI_N87): −1.712; Average Area Under the Viability Curve (AUC), AUC norm value (OCUM1): 3.086; Average Area Under the Viability Curve (AUC), AUC norm value (SK4): −0.7298; Average Area Under the Viability Curve (AUC), AUC norm value (SNU16): −2.759; Average Area Under the Viability Curve (AUC), AUC norm value (SNU1750): 0.6058; Average Area Under the Viability Curve (AUC), AUC norm value (SNU1967): 1.228; Average Area Under the Viability Curve (AUC), AUC norm value (SNU1): −3.451; Average Area Under the Viability Curve (AUC), AUC norm value (SNU216): 2.335; Average Area Under the Viability Curve (AUC), AUC norm value (SNU484): −0.7278; Average Area Under the Viability Curve (AUC), AUC norm value (SNU601): −1.688; Average Area Under the Viability Curve (AUC), AUC norm value (SNU620): −3.501; Average Area Under the Viability Curve (AUC), AUC norm value (SNU638): −0.1608; Average Area Under the Viability Curve (AUC), AUC norm value (SNU668): 0.4109; Average Area Under the Viability Curve (AUC), AUC norm value (SNU719): 6.209; Average Area Under the Viability Curve (AUC), AUC norm value (YCC11): −1.189; Average Area Under the Viability Curve (AUC), AUC norm value (YCC2): 0.2073; Average Area Under the Viability Curve (AUC), AUC norm value (YCC3): 3.384; Average Area Under the Viability Curve (AUC), AUC norm value (FU97): 0.3061

Q: Which results are given for CC[C@@]1(O)C(=O)OCc2c1cc1n(c2=O)Cc2cc3ccccc3nc2-1 [Camptothecin]?
A: Average Area Under the Viability Curve (AUC), AUC norm value (AGS): −1.989; Average Area Under the Viability Curve (AUC), AUC norm value (Hs746T): 0.3026; Average Area Under the Viability Curve (AUC), AUC norm value (KATO3): 4.769; Average Area Under the Viability Curve (AUC), AUC norm value (MKN1): −0.642; Average Area Under the Viability Curve (AUC), AUC norm value (MKN28): 0.3881; Average Area Under the Viability Curve (AUC), AUC norm value (MKN45): 0.1203; Average Area Under the Viability Curve (AUC), AUC norm value (MKN74): −0.08807; Average Area Under the Viability Curve (AUC), AUC norm value (NCC19): 0.9854; Average Area Under the Viability Curve (AUC), AUC norm value (NCC20): −1.829; Average Area Under the Viability Curve (AUC), AUC norm value (NCC24): 0.5273; Average Area Under the Viability Curve (AUC), AUC norm value (NCC59): 1.208; Average Area Under the Viability Curve (AUC), AUC norm value (NCI_N87): 0.7261; Average Area Under the Viability Curve (AUC), AUC norm value (OCUM1): −0.5033; Average Area Under the Viability Curve (AUC), AUC norm value (SK4): −0.8823; Average Area Under the Viability Curve (AUC), AUC norm value (SNU16): −1.529; Average Area Under the Viability Curve (AUC), AUC norm value (SNU1750): 0.02348; Average Area Under the Viability Curve (AUC), AUC norm value (SNU1967): −1.86; Average Area Under the Viability Curve (AUC), AUC norm value (SNU1): −2.182; Average Area Under the Viability Curve (AUC), AUC norm value (SNU216): 1.3094; Average Area Under the Viability Curve (AUC), AUC norm value (SNU484): 1.047; Average Area Under the Viability Curve (AUC), AUC norm value (SNU601): −1.853; Average Area Under the Viability Curve (AUC), AUC norm value (SNU620): −1.867; Average Area Under the Viability Curve (AUC), AUC norm value (SNU638): −0.9365; Average Area Under the Viability Curve (AUC), AUC norm value (SNU668): −1.202; Average Area Under the Viability Curve (AUC), AUC norm value (SNU719): 3.079; Average Area Under the Viability Curve (AUC), AUC norm value (YCC11): −0.5718; Average Area Under the Viability Curve (AUC), AUC norm value (YCC2): 0; Average Area Under the Viability Curve (AUC), AUC norm value (YCC3): 1.3493; Average Area Under the Viability Curve (AUC), AUC norm value (FU97): 1.097
